Assay results: US10703764B2, “Benzopiperazine compositions as BET bromodomain inhibitors” (FORMA Therapeutics, Inc., priority 2013, dated 2020)

Tests used:
BRD4 BD2 = target: T1, BRD4 BD2 (Homo sapiens, UniProt O60885); assay: AlphaScreen binding assay, BRD4 Bromodomain 2
T1 construct: made in house
Outline: (§1)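 Compound dilution series were mixed with His-tagged BRD4 bromodomain and biotinylated tetra-acetylated H4 (1-21) peptide at pH 7.3 (BD1 and peptide at 50 nM, BD2 and peptide at 100 nM). Donor and acceptor beads were then added, and plates were equilibrated at least 1 h before reading. IC50 values were fitted with a four-parameter logistic model.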

BRD4 BD1 = target: T2, BRD4 BD1 (Homo sapiens, UniProt O60885); assay: AlphaScreen binding assay, BRD4 Bromodomain 1
T2 construct: made in house
Outline: as §1

MV4-11 cells = assay: Oncology cell growth assay (3-day proliferation, CellTiter-Glo); type: cell-based; conditions: Homo sapiens, MV4-11, 72 h, AML cell line MV4-11, 72 hours, compounds grouped by IC50 range, read-out: MV4-11 IC50 (inhibition of proliferation, gIC50)
Outline: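 Compounds were serially diluted 3-fold in DMSO, giving final well concentrations from 10 down to 0.0045 μM. MV4-11 cells were then seeded at 3000 cells/well in RPMI 1640 with 10% FBS and incubated 72 hours. CellTiter-Glo signal was measured and gIC50 obtained by four-parameter logistic regression.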

Structure (SMILES) | IC50 (BRD4 BD2) [nM] | IC50 (BRD4 BD1) [nM] | IC50 (MV4-11 cells) [nM]
CC(=O)N1c2ccc(-c3cnn(CCF)c3)cc2N(C(=O)C2CC2)C[C@@H]1C [Example I-671] | 50 to 500 | 100 to 1000 | 100 to 500
CC(=O)N1c2ccc(-c3ccc(N4CCOCC4)cc3)cc2N(C(=O)OC2CCOCC2)C[C@@H]1C [Example I-1230] | 50 to 500 | 100 to 1000 | 100 to 500
CC(=O)N1c2ccc(-c3cnn(C4CNC4)c3)cc2N(C(=O)OC2CC(F)(F)C2)C[C@@H]1C [Example I-152, (S)-3,3-difluorocyclobutyl 4-acetyl-7-(1-(azetidin-3-yl)-1H-pyrazol-4-yl)-3-methyl-3,4-dihydroquinoxaline-1(2H)-carboxylate] | < 50 | 100 to 1000 | 100 to 500
COC(=O)N1c2ccc(-c3cnn(CCC(N)=O)c3)cc2N(C(=O)OC(C)C)C[C@@H]1C [Example I-638] | 50 to 500 | 100 to 1000 | > 500
CC(=O)N1c2ccc(-c3ccc(S(=O)(=O)N(C)C)cc3)cc2N(C(=O)C2CC2)C[C@@H]1C [Example I-1123] | 50 to 500 | 1000 to 10000 | 100 to 500
CC(=O)N1c2ccc(-c3cccc(S(=O)(=O)N(C)C)c3)cc2N(C(=O)OC2CCCCC2)C[C@@H]1C [Example I-1223] | 50 to 500 | 100 to 1000 | 100 to 500
CC(=O)N1c2ccc(-c3ccc4c(c3)N(S(C)(=O)=O)CCC4)cc2N(C(=O)C2CC2)C[C@@H]1C [Example I-1184] | 50 to 500 | 100 to 1000 | 100 to 500
CC(=O)N1c2ccc(-c3ccc(F)c(S(C)(=O)=O)c3)cc2N(C(=O)OC2CCOCC2)C[C@@H]1C [Example I-1250] | > 500 | 1000 to 10000 | > 500
CC(=O)N1c2ccc(-c3cnn(Cc4ccnn4C)c3)cc2N(C(=O)C2CC2)C[C@@H]1C [Example I-652] | 50 to 500 | 100 to 1000 | > 500
CC(=O)N1c2ccc(-c3ccc(C(=O)N4CC(O)C4)cc3)cc2N(C(=O)OC(C)C)C[C@@H]1C [Example I-582] | 50 to 500 | 100 to 1000 | 100 to 500
CC(C)OC(=O)N1C[C@H](C)N(C(=O)C2CC2)c2ccc(-c3cnc(N)cn3)cc21 [Example I-472] | > 500 | 100 to 1000 | > 500
CC(=O)N1c2ccc(-c3cnn(CCn4cncn4)c3)cc2N(C(=O)OC(C)C)C[C@@H]1C [Example I-139, (S)-isopropyl 7-(1-(2-(1H-1,2,4-triazol-1-yl)ethyl)-1H-pyrazol-4-yl)-4-acetyl-3-methyl-3,4-dihydroquinoxaline-1 (2H)-carboxylate] | < 50 | 100 to 1000 | 100 to 500
CNS(=O)(=O)c1cccc(-c2ccc3c(c2)N(C(=O)OC(C)C)C[C@H](C)N3C(C)=O)c1 [Example I-1107] | 50 to 500 | 100 to 1000 | 100 to 500
CC(=O)N1c2ccc(-c3ccc(S(=O)(=O)n4cccn4)cc3)cc2N(C(=O)OC(C)C)C[C@@H]1C [Example I-1118] | > 500 | 1000 to 10000 | > 500
CCOC(=O)N1C[C@H](C)N(C(C)=O)c2ccc(-c3cccc(S(=O)(=O)C4CC4)c3)cc21 [Example I-1088] | 50 to 500 | 1000 to 10000 | > 500
CC(=O)N1c2ccc(-c3ccc(S(=O)(=O)N(C)C)cc3)cc2N(C(=O)OC2CCCCC2)C[C@@H]1C [Example I-1263] | 50 to 500 | 100 to 1000 | 100 to 500
CC(=O)N1c2ccc(-c3cccc(S(=O)(=O)NCCO)c3)cc2N(C(=O)C2CCC2)C[C@@H]1C [Example I-1109] | 50 to 500 | 1000 to 10000 | > 500
CC(=O)N1c2ccc(-c3cccc(S(=O)(=O)N(C)C)c3)cc2N(C(=O)OC2CCOCC2)C[C@@H]1C [Example I-1224] | 50 to 500 | 100 to 1000 | 100 to 500
CC(=O)N1c2ccc(-c3cnn(CCC#N)c3)cc2N(C(=O)C2CC2)C[C@@H]1C [Example I-650] | 50 to 500 | 100 to 1000 | 100 to 500
CC(=O)N1c2ccc(-c3ccc4cnccc4c3)cc2N(C(=O)c2ccco2)C[C@@H]1C [Example I-864] | 50 to 500 | 100 to 1000 | 100 to 500
CC(=O)N1c2ccc(-c3cnn(CC4(CO)COC4)c3)cc2N(C(=O)C2CC2)C[C@@H]1C [Example I-662] | 50 to 500 | 100 to 1000 | > 500
CC(=O)N1c2ccc(-c3cnn(Cc4cncs4)c3)cc2N(C(=O)OC(C)C)C[C@@H]1C [Example I-143, (S)-isopropyl 4-acetyl-3-methyl-7-(1-(thiazol-5-ylmethyl)-1H-pyrazol-4-yl)-3,4-dihydroquinoxaline-1(2H)-carboxylate] | 50 to 500 | 100 to 1000 | 100 to 500
